For data set [1] the following is noted: 2 weeks.
The next data set has as its system influenza A/PR/8/34. The experiment in a line: In vivo combination of Compound (1) with zanamivir, influenza A challenge in mice. As to conditions: no Compound (1). An excerpt: Efficiency quotient, a composite measure of survival, bodyweight loss and lung function (% survival/(% body weight loss at Day 8)*(Penh at Day 6)) is summarized in Table 19B.
The subject of data set [2] is A/Puerto Rico/8/34. The class given is cell-based, influenza A virus.
Data set [3] has as its system A/Puerto Rico/8/34.
Data set [4] deals with Influenza A/Victoria/3/75 (H3N2) virus. The class given is in vivo, BALB/c mice. As to conditions: mouse, in vivo.
Data set [5] deals with Influenza A/California/04/2009 (pndH1N1) virus. The class given is in vivo, BALB/c mice. As to conditions: mouse, in vivo.
In the next data set the test system is influenza A. The experiment in a line: Mouse model of influenza A: lung viral titers. The class given is in vivo, mice. The note with it: Study 1, 10 mg/kg BID from 24 h post infection for 5 days.
In another data set the test system is influenza A virus. The experiment in a line: Mouse influenza A model: prophylactic dose response and delayed treatment, survival and body weight loss. The format is in vivo, mice. As to conditions: 10 mg/kg BID. An excerpt: The prophylactic dose response of Compound (1) was investigated in the mouse influenza A model. […] All of the mice that received vehicle alone succumbed to the infection by study day 9 and had lost, on average, ˜32% of their body weight (BW).
All vehicle controls succumbed to disease by study days 8 or 9.

Data set [6] deals with Influenza A/Vietnam/1203/2004 (H5N1) virus. The class given is in vivo, BALB/c mice. The note with it: 10 mg/kg p.o. twice a day for 10 days; Treatment (+48 h).
Setting [7] is: in Nitromethane, ambient temperature.
Where [8] appears, read: Zanamivir 0.3 mg/kg IN x 1, 24 h prior to infection.
Where [9] appears, read: Zanamivir 1 mg/kg IN x 1, 24 h prior to infection.
Where [10] appears, read: Zanamivir 3 mg/kg IN x 1, 24 h prior to infection.
The mark [11] stands for this setting: treatment start +24 h relative to infection.
The mark [12] stands for this setting: treatment start +48 h relative to infection.
Setting [13] is: treatment start +72 h relative to infection.
Where [14] appears, read: treatment start −2 h relative to infection.

SMILES strings stand for the structures. Like-named read-outs stand apart in the source and are kept apart here. Marks after values point to notes of the source that are not given here. Where only a bound is given, the exact number is not on record here.

As for `Cl.Cl.O.O=C(O)[C@H]1C2CCC(CC2)[C@@H]1Nc1nc(-c2c[nH]c3ncc(F)cc23)ncc1F.O=C(O)[C@H]1C2CCC(CC2)[C@@H]1Nc1nc(-c2c[nH]c3ncc(F)cc23)ncc1F` [Form A HCl salt of Compound (1)], the figures for the Sol. in data set [1] and in [1] (setting [7]) were 0.6 mg/mL and less than 0.1 mg/mL, respectively.

With `CC(=O)N[C@H]1[C@H]([C@H](O)[C@H](O)CO)OC(C(=O)O)=C[C@@H]1N=C(N)N` [Zanamivir, reference compound], the “Efficiency Quotient (% survival/(% body weight loss at Day 8)*(Penh at Day 6))” value is listed as 0.44 in the data set with influenza A/PR/8/34 (setting [8]), 0.73 in the data set with influenza A/PR/8/34 (setting [9]) and 0.73 with influenza A/PR/8/34 (setting [10]). Besides, the “Survival Rate” value with influenza A/PR/8/34 (setting [8]) was determined as 37.5; in the data set on influenza A/PR/8/34 (setting [9]), 50; in the data set with influenza A/PR/8/34 (setting [10]) it was 62.5. The “Synergy Volume, 95% Confidence” value with A/Puerto Rico/8/34 [2] worked out at 268. In the data set on A/Puerto Rico/8/34 [3], the “C.I. (combination index) values at the 50% effect level” value worked out at 0.64.

As for `NC(=O)c1nc(F)c[nH]c1=O` [favipiravir], the “Synergy Volume, 95% Confidence” value in the data set on A/Puerto Rico/8/34 [2] turned out to be 317. For the same molecule, the “C.I. (combination index) values at the 50% effect level” value in the data set with A/Puerto Rico/8/34 [3] is 0.89.

As for `CCC(CC)O[C@@H]1C=C(C(=O)O)C[C@H](N)[C@H]1NC(C)=O` [oseltamivir carboxylate], the “Synergy Volume, 95% Confidence” value with A/Puerto Rico/8/34 [2] amounted to 312.

Consider `O=C(O)[C@H]1C2CCC(CC2)[C@@H]1Nc1nc(-c2c[nH]c3ncc(F)cc23)ncc1F` [Form A free base Compound (1)], for which the Sol. is less than 0.1 mg/mL in data set [1] and 0.3 mg/mL in data set [1] (setting [7]).

For `CCOC(=O)C1=C[C@@H](OC(CC)CC)[C@H](NC(C)=O)[C@@H](N)C1` [Oseltamivir, reference compound], in data set [4], the “MDD ± SD (mean day of death of mice that died on or before day 21)” value is given as 7.0, the “Mean Lung Parameters (Day 6): Score (hemorrhage score 0-4)” value came out at 1.7, the “Mean Lung Parameters (Day 6): Virus Titer” value is reported as 7.0 Log10 CCID50/g and the “Mean Lung Parameters (Day 6): Weight” value is given as 218 mg. In addition, in data set [4], the Survivors/Total is 9/10***. In data set [5], the “Mean Lung Parameters (Day 6): Score (hemorrhage score 0-4)” value is given as 1.0, the “Mean Lung Parameters (Day 6): Virus Titer” value is 7.9 Log10 CCID50/g, the “Mean Lung Parameters (Day 6): Weight” value was 178 mg and the Survivors/Total was 10/10***. Further, the “Log10 Reduction vs. Vehicle” value with influenza A (study day 6) is −0.15. For the same molecule, the “Lung Viral Titer” value in the data set with influenza A (titers on study day 6) is listed as 6.05 Log10 TCID50. Besides, the survival entry in the data set with influenza A virus (same experiment (prophylactic)) was “All of the oseltamivir-administered mice survived”. Moreover, in the data set on influenza A virus (only when dosing was initiated 24 h or less post infection), the protection from death result is given as “complete protection”. Moreover, in the data set with influenza A virus (setting [11]), the “Percent Body Weight Loss on Study Day 8” value is −28.9% and the “Percent Survival” value is 100%. For the same molecule, in the data set with influenza A virus (setting [12]), the “Percent Body Weight Loss on Study Day 8” value is −31.1% and the “Percent Survival” value is given as 80%. In the data set with influenza A virus (setting [13]), the “Percent Body Weight Loss on Study Day 8” value is on record as −31.3% and the “Percent Survival” value was 0%. For the same molecule, in the data set on influenza A virus (setting [14]), the “Percent Body Weight Loss on Study Day 8” value is −19.1% and the “Percent Survival” value is given as 100%. Further, the “C.I. (combination index) values at the 50% effect level” value with A/Puerto Rico/8/34 [3] came out at 0.58. Also, in data set [6], the “MDD ± SD (mean day of death of mice that died on or before day 21)” value was determined as 9.5 ± 1.2, the “Mean Lung Parameters (Day 6): Virus Titer” value is reported as 5.22 ± 0.38 Log10 CCID50/g and the Survivors/Total is reported as 0/10.
